The text below walks through data of patent US7759373B2, “Large conductance calcium-activated K channel opener” (Mitsubishi Tanabe Pharma Corporation, priority 2001, dated 2010).

For series [1], the system named is isolated rabbit urinary bladder. Description: Relaxation effect on potassium-induced contraction of isolated rabbit urinary bladder. Type of series: cell-based. The following applies: Oryctolagus cuniculus; 50% relaxation concentration; high-K+ (30 mM) pre-contracted rabbit bladder strips; relaxation as percentage of the maximum produced by 0.1 mM papaverine; read-out: EC50 value range. An outline of the steps:
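Mucosa-free longitudinal bladder strips from male NZW rabbits, held at 37 °C in Krebs solution gassed with 95% O2/5% CO2, were precontracted with 30 mM K+. Compounds were added cumulatively (10^−8–10^−4 M), with isometric relaxation expressed relative to 0.1 mM papaverine maximum. EC50 was derived and reported as rank ranges.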

Series [2] relates to rhythmic bladder contractions induced by substance P. Briefly: Inhibitory effect on the rhythmic bladder contractions induced by substance P in anesthetized rats. Type of series: in vivo, rat. The following applies: time during which frequency of rhythmic contraction was completely inhibited, 0.25 mg/kg of the compound, substance P infusion. An outline of the steps:
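Urethane-anesthetized female Sprague-Dawley rats with rhythmic bladder contractions driven by i.v. substance P (0.33 μg/kg/min). Compound given i.v. in saline/0.5% Tween 80 once contractions stable 15 min; intravesical pressure monitored, duration of 100% inhibition ranked A ≥20, B ≥10, C <10 min.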

The term melting point denotes the temperature, or range, at which the solid turns liquid. By EC50 is commonly meant the concentration at which the effect is half-maximal.

The structures appear in SMILES notation. Where a name gives a salt, the structure may show the parent alone.

With `CCc1nc(-c2ccc(Cl)cc2)[nH]c1-c1ccccc1` [Preparation example 59], the melting point is 174 to 176 °C. Also, the EC50 in series [1] was in the range of 1000 to 3000 nM. For the same molecule, the “100% inhibition time range” value in series [2] was “B (A≧20>B≧10>C (minute))”.
The matching figures for `CCc1nc(-c2ccc(F)cc2)[nH]c1-c1ccccc1` [Preparation example 61]: 169 to 170 °C, 1000 to 3000 nM and “A (A≧20>B≧10>C (minute))”.
In the case of `COCc1[nH]c(-c2ccc(Cl)s2)nc1-c1cccnc1.Cl.Cl` [Preparation example 120, 2-(5-chlorothiophen-2-yl)-5-methoxymethyl-4-(3-pyridyl) imidazole dihydrochloride], the melting point was 245 to 248 °C (dec.). Besides, in series [1], the EC50 is no more than 500 nM. Also, the “100% inhibition time range” value in series [2] was “C (A≧20>B≧10>C (minute))”.
On the same counts, the results for `CCONC(=O)Cc1nc(-c2ccc(F)cc2)oc1-c1ccsc1` [Preparation Example 377] are 183 to 184 °C, 1000 to 3000 nM and “C (A≧20>B≧10>C (minute))”.
On to `CCCc1nc(-c2ccc(F)cc2)[nH]c1-c1ccc(C#N)cc1` [Preparation example 95], for which the melting point was 240 to 242 °C. Further, the EC50 in series [1] is 1000 to 3000 nM.
`CCOC(=O)c1sccc1-c1nc(CC)c(-c2cccnc2)[nH]1` [Preparation example 10] showed a melting point of 127 to 129 °C. In addition, in series [1], the EC50 lay within 1000 to 3000 nM.
Consider `CCc1nc(-c2ccc(Cl)s2)oc1-c1cccnc1.Cl` [Preparation example 63, 2-(5-chlorothiophen-2-yl)-4-ethyl-5-(3-pyridyl)oxazole hydrochloride], for which the melting point was in the range of 201 to 204 °C. Moreover, the “100% inhibition time range” value in series [2] is listed as “C (A≧20>B≧10>C (minute))”.
The matching figures for `C[S+]([O-])Cc1nc(-c2ccc(F)cc2)oc1-c1ccsc1` (stereo not shown) [Preparation Example 624]: 173 to 174.5 °C and “C (A≧20>B≧10>C (minute))”.
The molecule `CCCc1nc(-c2ccc(Cl)cc2)[nH]c1-c1ccccc1` [Preparation example 60] came in with a melting point of 147 to 149 °C. Further, in series [1], the concentration for a half-maximal effect (EC50) lay in the range of 1000 to 3000 nM.
With `COC(=O)c1nc(-c2ccc(F)cc2)oc1-c1ccsc1` [Preparation Example 622], the melting point was 213 to 214 °C. Also, the “100% inhibition time range” value in series [2] was “B (A≧20>B≧10>C (minute))”.
Regarding `CS(=O)(=O)Cc1nc(-c2ccc(F)cc2)oc1-c1ccsc1` [Preparation Example 623], the melting point lay within 208 to 210 °C. In series [1], the EC50 lay in the range of 1000 to 3000 nM. Further, the “100% inhibition time range” value in series [2] was “C (A≧20>B≧10>C (minute))”.
The molecule `CCc1nc(-c2ccc(F)cc2)[nH]c1-c1cncnc1` (as salt: HCl) [Preparation example 85] gave a melting point of 287 to 289 °C.
As for `CSCc1nc(-c2ccc(C#N)cc2)[nH]c1-c1ccccc1` (as salt: HCl) [Preparation example 132], the melting point fell in the range of 256 to 259 °C.
The molecule `CCc1nc(-c2cccc(Cl)c2)[nH]c1-c1cccnc1` (as salt: HCl) [Preparation example 13] returned a melting point of 223 to 224 °C.
The same measure, in the same setting: then `OCc1nc(-c2ccc(F)cc2)[nH]c1-c1cccnc1` [Preparation example 113], with 225 to 228 °C; and `OCc1nc(-c2ccc(F)cc2)[nH]c1-c1ccccc1` [Preparation example 117], with 240 to 243 °C; and `CCc1nc(-c2ccc(F)cc2)[nH]c1-c1cncs1` (as salt: HCl) [Preparation example 86], with 254 to 256 °C.
With `CCc1nc(-c2ccc(F)cc2)[nH]c1-c1cscn1` (as salt: HCl) [Preparation example 52], the melting point was in the range of 267 to 269 °C.
Same read-out and setting: the same measure for `CCOC(=O)Cc1nc(-c2ccc(COC(C)=O)cc2)oc1-c1ccc(Cl)s1` [Preparation Example 426]: 112 to 113 °C.
`CCOC(=O)Cc1nc(-c2ccc(F)cc2)oc1I` [Preparation Example 295] yielded a melting point of 120 to 122 °C. In addition, the “100% inhibition time range” value in series [2] is reported as “B (A≧20>B≧10>C (minute))”.
Regarding `CCCc1nc(-c2ccc(F)cc2)[nH]c1-c1ccccc1C(N)=O` (as salt: HCl) [Preparation example 101], the melting point fell in the range of 186 to 189 °C.
Still for that read-out and setting: the same measure for `CCc1nc(-c2ccccc2Cl)[nH]c1-c1cccnc1` (as salt: HCl) [Preparation example 12]: 221 to 223 °C.
As for `N#CCCc1nc(-c2ccc(F)cc2)[nH]c1-c1ccccc1` [Preparation example 62], the melting point is 176 to 178 °C. In series [2], the “100% inhibition time range” value was “C (A≧20>B≧10>C (minute))”.
`Fc1ccc(-c2nc(C3CCCCC3)c(-c3ccsc3)[nH]2)cc1` [Preparation example 45] yielded a melting point of 171 to 173 °C.
Still for that read-out and setting: then `CCOC(=O)Cc1nc(-c2ccc(OC)c(C)c2)oc1-c1ccsc1` [Preparation Example 410], with 84 to 86 °C.
Regarding `CCc1nc(-c2ccc(F)cc2)[nH]c1-c1cnccn1` (as salt: HCl) [Preparation example 49], the melting point lay within 241 to 243 °C.
The same measure, in the same setting: then `CSCc1nc(-c2cccc(F)c2)[nH]c1-c1ccccc1` (as salt: HCl) [Preparation example 131], with 218 to 220 °C; and `CCCc1nc(-c2ccc(F)cc2)[nH]c1-c1ccc(SC)cc1` (as salt: HCl) [Preparation example 89], with 174 to 176 °C.
On the same count and under the same terms, the same measure for `Fc1ccc(-c2ncc(-c3cccnc3)[nH]2)cc1` (as salt: HCl) [Preparation example 22]: 192 to 195 °C; for `CCOC(=O)Cc1nc(-c2ccc(Cl)cc2)oc1-c1ccco1` [Preparation Example 191]: 109 to 111 °C; for `COc1ccc(-c2nc(CC(=O)O)c(-c3ccsc3)o2)cc1` [Preparation Example 200]: 198 to 199 °C.
`CCOC(=O)Cc1nc(-c2ccc(F)cc2)oc1-c1cc(C)cs1` [Preparation Example 163] gave a melting point of 138 to 139 °C.
For the molecule `CCc1nc(-c2ccc(F)cc2)[nH]c1Br` (as salt: hydrochloride) [Preparation example 77, 5-bromo-4-ethyl-2-(4-fluorophenyl)-imidazole], the melting point was 219 to 221 °C (dec.).
`CSCc1nc(-c2ccc(F)cc2)[nH]c1-c1cccnc1` [Preparation example 133] displayed a melting point of 172 to 174 °C. Also, the “100% inhibition time range” value in series [2] is “C (A≧20>B≧10>C (minute))”.
In the case of `CCCc1nc(-c2ccc(F)cc2)[nH]c1Br` (as salt: HCl) [Preparation example 79], the melting point is 178 to 180 °C.
The same measure, in the same setting: the same measure for `CCOC(=O)Cc1nc(-c2ccc(OC)c(F)c2)oc1-c1cccs1` [Preparation Example 382]: 117 to 117.5 °C.
